Laboratory results reported in publication PMC8645336, “Benchmarking a highly selective USP30 inhibitor for enhancement of mitophagy and pexophagy” (Life Science Alliance, 2021).

Assays:
Assay in all cases: biochemical
Set-up in all cases: Ubiquigent DUB profiler selectivity panel, remaining enzyme activity as % of control
Conditions in all cases: read-out: % of control remaining
AMSH-LP (+Zinc) = biological target: T1, AMSH-LP (+Zinc) (Homo sapiens, UniProt Q96FJ0)
T1 construct: gene STAMBPL1; +Zinc
T1 sequence (Q96FJ0 1-436): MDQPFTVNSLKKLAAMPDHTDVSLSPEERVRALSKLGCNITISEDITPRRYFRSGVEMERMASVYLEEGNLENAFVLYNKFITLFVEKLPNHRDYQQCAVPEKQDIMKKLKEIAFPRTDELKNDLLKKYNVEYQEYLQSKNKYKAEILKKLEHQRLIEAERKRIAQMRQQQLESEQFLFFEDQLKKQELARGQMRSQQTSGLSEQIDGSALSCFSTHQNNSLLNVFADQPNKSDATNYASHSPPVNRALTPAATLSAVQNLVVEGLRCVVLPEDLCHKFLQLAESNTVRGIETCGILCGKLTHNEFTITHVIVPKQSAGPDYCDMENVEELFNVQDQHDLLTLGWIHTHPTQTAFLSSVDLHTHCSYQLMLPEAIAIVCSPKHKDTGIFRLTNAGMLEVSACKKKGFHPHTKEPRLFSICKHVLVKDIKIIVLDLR
Experimental: (§1) Previous work has reported IC50 values for a series of benzosulphonamide inhibitors, of which all those <1 μM were screened for selectivity, in comparison to three other USP family members ([20], [21]). We have selected one of these compounds (CMPD-39, Fig 1A) for a more rigorous test of selectivity provided by the Ubiquigent DUB profiler screening platform comprising >40 DUBs. […] To test engagement of the inhibitor with USP30 applied to intact cells, we assayed competition with Ub-PA (Ub-propargylamide). Ub-PA covalently binds to the USP30 active site leading to a characteristic upshift on a SDS–PAGE gel ([22]). If a drug blocks access to the catalytic site, then the probe modification is blocked and the apparent molecular weight of USP30 shifts down accordingly. […] A robust proxy read-out for target engagement is the enhancement of TOMM20 ubiquitylation after mitochondrial depolarization ([6], [16]). This second assay indicates a maximal effect with 200 nM CMPD-39 applied to RPE1-YFP-PRKN cells (Fig 1D).  Figure 1. CMPD-39 is a selective USP30 inhibitor. (A) Chemical structure of CMPD-39. (B) DUB specificity screen (DUB profiler, Ubiquigent) with 1-100 μM CMPD-39. […] Samples were incubated with CMPD-39 for 2 h at the indicated concentrations, then incubated with HA-Ub-PA probe for 10 min at 37°C and immunoblotted as shown. Red arrow indicates unbound USP30; blue arrow represents probe bound USP30. (D) Inhibition of USP30 enhances the ubiquitylation of TOMM20 in YFP-PRKN over-expressing hTERT-RPE1 cells in a concentration dependent manner in response to mitophagy induction. Cells were treated for 1 h with DMSO or antimycin A and oligomycin A (AO; 1 μM each) in the absence or presence of CMPD-39 at the indicated concentrations, lysed, and analyzed by Western blotting. Black arrow indicates unmodified TOMM20, ubiquitylated species are indicated by red (mono-ubiquitylated) or blue arrow heads. […] Source data are available for this figure.

UCHL5 = biological target: T2, UCHL5 (Homo sapiens, UniProt Q9Y5K5)
T2 sequence (Q9Y5K5 1-329): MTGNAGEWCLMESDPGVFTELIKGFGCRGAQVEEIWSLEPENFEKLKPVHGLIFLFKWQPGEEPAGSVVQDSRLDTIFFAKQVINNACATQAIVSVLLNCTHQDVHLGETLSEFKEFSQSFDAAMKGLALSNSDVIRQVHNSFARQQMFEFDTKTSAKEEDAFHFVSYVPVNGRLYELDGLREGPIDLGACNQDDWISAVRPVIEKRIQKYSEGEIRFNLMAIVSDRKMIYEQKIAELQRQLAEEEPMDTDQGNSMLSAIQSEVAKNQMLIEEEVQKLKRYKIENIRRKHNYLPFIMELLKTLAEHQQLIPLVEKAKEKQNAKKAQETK
Experimental: as §1

USP16 = USP16 (Homo sapiens, UniProt Q9Y5T5)
Experimental: as §1

USP2 = biological target: T3, USP2 (Homo sapiens, UniProt O75604)
T3 sequence (O75604 1-605): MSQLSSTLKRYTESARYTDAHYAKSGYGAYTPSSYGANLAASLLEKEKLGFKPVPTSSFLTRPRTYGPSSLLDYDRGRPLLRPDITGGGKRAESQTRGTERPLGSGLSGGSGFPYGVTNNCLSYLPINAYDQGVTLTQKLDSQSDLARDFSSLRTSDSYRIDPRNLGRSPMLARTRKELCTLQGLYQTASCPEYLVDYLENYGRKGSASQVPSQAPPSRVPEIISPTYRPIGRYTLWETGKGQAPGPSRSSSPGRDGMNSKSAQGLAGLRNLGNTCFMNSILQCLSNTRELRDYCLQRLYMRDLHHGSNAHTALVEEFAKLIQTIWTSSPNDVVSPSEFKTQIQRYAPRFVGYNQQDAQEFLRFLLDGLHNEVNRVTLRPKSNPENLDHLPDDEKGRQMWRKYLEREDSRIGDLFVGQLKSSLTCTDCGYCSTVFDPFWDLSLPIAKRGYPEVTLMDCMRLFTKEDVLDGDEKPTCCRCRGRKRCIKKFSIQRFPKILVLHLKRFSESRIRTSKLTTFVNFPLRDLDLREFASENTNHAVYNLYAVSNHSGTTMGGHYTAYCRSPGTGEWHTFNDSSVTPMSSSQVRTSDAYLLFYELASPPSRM
Experimental: as §1

USP6 = USP6 (Homo sapiens, UniProt P35125)
Experimental: as §1

Ataxin3 = biological target: T4, Ataxin3 (Homo sapiens, UniProt P54252)
T4 construct: gene ATXN3
Experimental: as §1

USP1/UAF1 = USP1/UAF1 (Homo sapiens, UniProt O94782)
Experimental: as §1

Chain of USP1/UAF1 (O94782 whole entry): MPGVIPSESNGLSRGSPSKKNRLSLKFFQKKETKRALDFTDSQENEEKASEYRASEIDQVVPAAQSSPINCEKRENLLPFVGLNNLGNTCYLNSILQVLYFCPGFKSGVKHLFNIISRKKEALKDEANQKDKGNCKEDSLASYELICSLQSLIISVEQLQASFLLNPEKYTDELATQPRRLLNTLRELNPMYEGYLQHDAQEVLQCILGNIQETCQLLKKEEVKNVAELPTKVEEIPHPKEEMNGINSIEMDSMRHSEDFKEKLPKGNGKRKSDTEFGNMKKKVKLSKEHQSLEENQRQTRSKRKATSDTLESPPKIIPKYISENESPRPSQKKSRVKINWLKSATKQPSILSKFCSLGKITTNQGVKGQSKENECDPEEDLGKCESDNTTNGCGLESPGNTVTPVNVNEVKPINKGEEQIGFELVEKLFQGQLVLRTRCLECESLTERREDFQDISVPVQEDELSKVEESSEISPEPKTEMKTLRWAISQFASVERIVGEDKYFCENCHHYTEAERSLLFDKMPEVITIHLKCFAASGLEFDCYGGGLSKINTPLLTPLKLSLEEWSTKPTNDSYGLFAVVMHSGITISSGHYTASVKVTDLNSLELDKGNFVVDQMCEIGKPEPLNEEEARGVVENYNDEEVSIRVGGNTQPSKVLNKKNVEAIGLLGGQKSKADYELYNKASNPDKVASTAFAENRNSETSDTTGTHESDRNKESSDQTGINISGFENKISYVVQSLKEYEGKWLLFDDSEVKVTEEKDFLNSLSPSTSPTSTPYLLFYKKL
Chain of USP1/UAF1 (Q8TAF3 whole entry partner): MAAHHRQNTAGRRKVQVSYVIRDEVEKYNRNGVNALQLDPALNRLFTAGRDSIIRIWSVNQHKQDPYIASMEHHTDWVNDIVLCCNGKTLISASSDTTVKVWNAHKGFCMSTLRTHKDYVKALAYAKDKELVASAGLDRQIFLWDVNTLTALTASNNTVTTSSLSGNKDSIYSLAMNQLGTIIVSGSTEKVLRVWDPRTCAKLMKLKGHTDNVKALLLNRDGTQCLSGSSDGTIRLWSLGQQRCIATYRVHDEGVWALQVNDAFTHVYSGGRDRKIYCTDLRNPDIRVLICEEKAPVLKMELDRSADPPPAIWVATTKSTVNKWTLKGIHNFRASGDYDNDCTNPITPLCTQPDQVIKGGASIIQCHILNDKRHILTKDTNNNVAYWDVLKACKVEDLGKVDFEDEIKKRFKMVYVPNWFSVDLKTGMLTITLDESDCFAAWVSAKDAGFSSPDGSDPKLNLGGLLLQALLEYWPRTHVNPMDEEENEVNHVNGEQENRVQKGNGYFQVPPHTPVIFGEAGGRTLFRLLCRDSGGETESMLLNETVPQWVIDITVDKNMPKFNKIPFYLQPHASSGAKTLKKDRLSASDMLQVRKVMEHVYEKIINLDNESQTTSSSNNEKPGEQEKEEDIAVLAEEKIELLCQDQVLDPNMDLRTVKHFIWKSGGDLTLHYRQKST
Chain of USP16 (Q9Y5T5 whole entry): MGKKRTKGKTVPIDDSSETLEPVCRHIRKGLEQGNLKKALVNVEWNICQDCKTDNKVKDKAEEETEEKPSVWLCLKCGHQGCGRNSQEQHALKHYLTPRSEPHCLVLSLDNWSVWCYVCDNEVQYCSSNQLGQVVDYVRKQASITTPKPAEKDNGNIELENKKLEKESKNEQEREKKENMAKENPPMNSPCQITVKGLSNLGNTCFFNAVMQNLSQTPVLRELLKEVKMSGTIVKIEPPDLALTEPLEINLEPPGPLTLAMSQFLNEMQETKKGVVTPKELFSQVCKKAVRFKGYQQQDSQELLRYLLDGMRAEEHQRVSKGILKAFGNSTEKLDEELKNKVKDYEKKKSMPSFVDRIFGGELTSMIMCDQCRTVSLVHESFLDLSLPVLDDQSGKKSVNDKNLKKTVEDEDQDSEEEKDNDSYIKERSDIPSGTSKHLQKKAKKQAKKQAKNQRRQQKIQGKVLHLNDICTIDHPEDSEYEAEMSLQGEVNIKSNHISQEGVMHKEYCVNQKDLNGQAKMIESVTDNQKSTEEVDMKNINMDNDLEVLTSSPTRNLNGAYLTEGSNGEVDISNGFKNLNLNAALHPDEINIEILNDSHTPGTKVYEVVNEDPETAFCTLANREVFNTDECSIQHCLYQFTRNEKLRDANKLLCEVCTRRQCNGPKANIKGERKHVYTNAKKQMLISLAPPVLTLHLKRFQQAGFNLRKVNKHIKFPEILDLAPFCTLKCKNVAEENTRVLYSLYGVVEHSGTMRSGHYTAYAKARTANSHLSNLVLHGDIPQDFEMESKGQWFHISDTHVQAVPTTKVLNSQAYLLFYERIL
Chain of USP6 (P35125 whole entry): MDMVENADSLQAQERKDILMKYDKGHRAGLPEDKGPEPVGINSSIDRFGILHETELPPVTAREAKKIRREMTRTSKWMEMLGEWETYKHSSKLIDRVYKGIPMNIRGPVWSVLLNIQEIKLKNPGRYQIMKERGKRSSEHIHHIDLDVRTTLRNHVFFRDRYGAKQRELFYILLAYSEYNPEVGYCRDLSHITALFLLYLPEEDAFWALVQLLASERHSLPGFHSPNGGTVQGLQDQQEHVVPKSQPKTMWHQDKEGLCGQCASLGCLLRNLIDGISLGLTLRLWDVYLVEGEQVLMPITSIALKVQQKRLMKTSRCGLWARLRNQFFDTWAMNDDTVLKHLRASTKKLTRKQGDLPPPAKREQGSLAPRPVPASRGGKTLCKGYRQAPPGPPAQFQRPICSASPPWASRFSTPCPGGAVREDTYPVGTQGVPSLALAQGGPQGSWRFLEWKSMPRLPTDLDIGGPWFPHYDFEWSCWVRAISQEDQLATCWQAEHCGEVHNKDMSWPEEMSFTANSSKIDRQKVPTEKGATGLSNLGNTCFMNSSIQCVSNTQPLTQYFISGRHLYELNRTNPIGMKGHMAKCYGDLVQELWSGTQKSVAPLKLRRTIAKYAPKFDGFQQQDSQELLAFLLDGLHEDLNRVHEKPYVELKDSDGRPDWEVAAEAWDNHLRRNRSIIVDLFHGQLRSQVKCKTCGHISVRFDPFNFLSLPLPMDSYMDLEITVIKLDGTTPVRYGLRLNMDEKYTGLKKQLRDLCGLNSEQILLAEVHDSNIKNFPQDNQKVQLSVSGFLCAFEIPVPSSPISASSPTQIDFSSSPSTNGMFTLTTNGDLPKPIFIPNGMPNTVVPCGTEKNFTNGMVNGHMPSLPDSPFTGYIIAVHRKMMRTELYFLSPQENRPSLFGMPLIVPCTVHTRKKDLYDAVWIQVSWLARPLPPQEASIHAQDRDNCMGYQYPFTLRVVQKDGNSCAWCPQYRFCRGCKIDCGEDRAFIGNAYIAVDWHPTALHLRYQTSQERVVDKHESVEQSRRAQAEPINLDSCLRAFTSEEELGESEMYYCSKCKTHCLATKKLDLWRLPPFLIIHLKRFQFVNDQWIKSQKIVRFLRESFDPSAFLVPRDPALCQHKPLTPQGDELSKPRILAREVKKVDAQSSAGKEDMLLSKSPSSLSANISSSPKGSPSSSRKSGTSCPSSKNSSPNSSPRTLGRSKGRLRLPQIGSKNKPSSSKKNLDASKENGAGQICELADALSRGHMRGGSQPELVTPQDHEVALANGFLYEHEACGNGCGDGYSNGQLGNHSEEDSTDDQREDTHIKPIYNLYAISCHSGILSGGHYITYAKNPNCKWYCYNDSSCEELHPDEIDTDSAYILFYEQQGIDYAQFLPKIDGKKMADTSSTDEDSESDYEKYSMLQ
T4 sequence (P54252 whole entry): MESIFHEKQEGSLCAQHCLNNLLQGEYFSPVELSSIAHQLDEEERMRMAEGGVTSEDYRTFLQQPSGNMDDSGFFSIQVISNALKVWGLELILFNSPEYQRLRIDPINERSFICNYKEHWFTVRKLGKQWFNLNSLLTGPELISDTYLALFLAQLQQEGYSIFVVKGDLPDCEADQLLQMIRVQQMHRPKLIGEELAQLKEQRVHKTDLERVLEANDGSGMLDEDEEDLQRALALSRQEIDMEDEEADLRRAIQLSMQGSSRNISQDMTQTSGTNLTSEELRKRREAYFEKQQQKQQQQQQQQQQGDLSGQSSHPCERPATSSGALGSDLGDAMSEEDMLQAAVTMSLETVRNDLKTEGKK

CC(C)(C)NS(=O)(=O)c1ccc(NC(=O)[C@H](Cc2ccccc2)NC(=O)c2ccc(F)cc2)cc1 [compound 39, CMPD-39]
remaining activity at 1 µM (AMSH-LP (+Zinc)): 106%
remaining activity at 10 µM (AMSH-LP (+Zinc)): 101%
remaining activity at 100 µM (AMSH-LP (+Zinc)): 97.8%
remaining activity at 1 µM (UCHL5): 107%
remaining activity at 10 µM (UCHL5): 98%
remaining activity at 100 µM (UCHL5): 101%
remaining activity at 1 µM (USP16): 111%
remaining activity at 10 µM (USP16): 100%
remaining activity at 100 µM (USP16): 104%
remaining activity at 1 µM (USP2): 107%
remaining activity at 10 µM (USP2): 97.7%
remaining activity at 100 µM (USP2): 101%
remaining activity at 1 µM (USP6): 101%
remaining activity at 10 µM (USP6): 96.8%
remaining activity at 100 µM (USP6): 90.6%
remaining activity at 1 µM (Ataxin3): 102%
remaining activity at 10 µM (Ataxin3): 102%
remaining activity at 100 µM (Ataxin3): 101%
remaining activity at 1 µM (USP1/UAF1): 98.6%
remaining activity at 10 µM (USP1/UAF1): 95.6%
remaining activity at 100 µM (USP1/UAF1): 97.4%
